Test results published in US20130084319A1, “BROAD-SPECTRUM ANTIMICROBIAL COMPOSITIONS BASED ON COMBINATIONS OF TAUROLIDINE AND PROTAMINE AND MEDICAL DEVICES CONTAINING SUCH COMPOSITIONS” (priority 2011, published 2013).

Columns and labels:
[1] = test system: Staphylococcus aureus ACTT 6538; assay: in vitro bacteria attachment assay on coated surgical mesh discs in SST medium; format: cell-based; conditions: serum containing media
Description: (§1) Taurolidine was dissolved at 4% wt./vol. in a 70% acetone 30% water vol./vol. mixture. Protamine sulfate was dissolved at 10% wt./vol. in water under warming. 50 μl of the taurolidine (TU) solution and 20 μl of the protamine (PS) solution were applied to each mesh disk using a pipette and allowed to dry at 50° C. until the majority of the liquid was gone and then stored under vacuum. First the taurolidine solution was applied, and then immediately thereafter the protamine sulfate solution was applied. The in vitro bacteria attachment assay was developed for its utility of indicating biofilm prevention potential of prototype mesh. Since bacterial attachment to a surface is the first step of biofilm formation, a surface treatment that inhibits bacterial attachment would reduce the chance of subsequent biofilm formation. The assay was conducted in SST (Serum Saline TSB) medium to mimic in vivo and clinical conditions. The formulation of SST is Tryptic Soy Broth (TSB):serum:saline in the ratio of 1:2:7. Each test article was incubated in SST inoculated with Staphylococcus aureus ACTT 6538 or Escherichia coli ATCC 25922 at about 6 Log CFU/ml. […] Viable bacteria populations were measured by plate count on TSA (Tryptic Soy agar) medium contain neutralizing agents. […]

[2] = test system: Escherichia coli ATCC 25922; assay: as above; format: cell-based; conditions: serum containing media
Description: as §1

[3] = cited from earlier work

Compound: O=S1(=O)CCN(CN2CCS(=O)(=O)NC2)CN1 [TU, bis(1,1-dioxoperhydro-1,2,4-thiadiazinyl-4)-methane]
- inhibition of attachment by S. aureus to treated mesh surface [1]: less inhibition than the combination
- inhibition of attachment by E. coli to treated mesh surface [2]: less inhibition than the combination
- cumulative dose shown to be safe and well tolerated ([3]; cumulative doses): exceeding 300 g
- systemic dose shown to be safe and well tolerated ([3]; systemic doses): exceeding 40 g/day
